From US6555546B2, “Use of 5HT3 antagonists for promoting intestinal lavage” (Janssen Pharmaceutics, N.V., priority 1997, dated 2003)
Where “and” joins values, the source holds several entries; their conditions need not be identical. Identical values can stand only once. Like-named read-outs stand apart in the source and are kept apart here.

Columns and labels:
5HT3 receptor = biological target: T1, 5HT3 receptor (Mus musculus, UniProt P23979); assay: In vitro 5HT3 receptor binding with [3H]GR 65630
T1 construct: Cells were homogenized in tris.HCl buffer; endogenous in cells; host or cells: NxG 108CC15 (NG108-15) cell membranes
T1 sequence (P23979 24-489): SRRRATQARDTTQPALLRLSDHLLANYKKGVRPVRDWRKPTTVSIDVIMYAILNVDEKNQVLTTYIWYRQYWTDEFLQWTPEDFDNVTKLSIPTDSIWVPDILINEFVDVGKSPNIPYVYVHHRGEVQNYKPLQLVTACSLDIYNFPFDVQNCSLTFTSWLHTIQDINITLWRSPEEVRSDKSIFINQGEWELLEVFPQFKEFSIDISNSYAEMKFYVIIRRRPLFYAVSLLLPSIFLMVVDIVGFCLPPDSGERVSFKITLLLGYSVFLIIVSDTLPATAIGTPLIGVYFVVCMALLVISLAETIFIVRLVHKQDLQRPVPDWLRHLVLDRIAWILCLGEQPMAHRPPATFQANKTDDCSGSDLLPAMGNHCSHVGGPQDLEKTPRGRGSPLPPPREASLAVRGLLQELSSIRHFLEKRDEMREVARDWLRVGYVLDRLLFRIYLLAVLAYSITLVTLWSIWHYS
Procedure: The incubation was run for 60 minutes at 37° C. Labelled membranes were collected and […] by rapid filtration under suction over […] filters (presoaked in 0.1% polyethyleneimine for at least 1 hour) using a 40-well filtration manifold. […] All experiments were repeated independently at least two times. Radioactivity on the filters was counted in a Packard Tri-carb 1600CA liquid scintillation analyzer. Counting data were collected directly in a Macintosh SE personal computer and further transferred to a Macintosh II personal computer. Counting data from assays in the presence of a compound were automatically expressed as percent of total binding measured in the absence of test compound. Inhibition curves plotting percent of total binding versus the log concentrations of the test compound were automatically generated.

Beagle dogs [1] = assay: MgSO4 induced intestinal lavage in dogs; format: in vivo, dog; settings: Canis lupus familiaris; po, 1 hour before oral MgSO4 (200 ml); liquid stools within 4 hours; read-out: MgSO4 induced intestinal lavage ED50 (95% c.l.)
Procedure: (§1) Beagle dogs of both sexes and varying in body weight were used. During the experiments, the dogs were individually housed in cages. They were uniquely identified by an ear tattoo number (received at the time of weaning). The animals were fasted overnight but were given free access to fresh tap water via automatic drinking nipples in the back of the cage.
Beagle dogs (of both sexes and varying in body weight, 16 hours deprived from food) were orally pretreated with the test compound (0.5 ml/kg) and challenged 1 hour later with an oral administration of magnesium sulphate (MgSO4.7H2O, 64 g/l, 0.26 M; 200 ml). The onset of MgSO4-induced intestinal lavage was assessed over a period of 4 hours after challenge. Liquid stools within 4 hours occured almost never in control animals treated with distilled water (3.0% false positives; n>100) and were considered to reflect significant acceleration of the MgSO4-induced intestinal lavage. Doses in the active dose range were given to five animals each, tested in separate experimental sessions including solvent-treated control animals.

Beagle dogs [2] = assay: KleanPrep-induced intestinal lavage in dogs; format: in vivo, dog; settings: for ED50: Canis lupus familiaris, oral pretreatment one hour earlier
Procedure: as §1
The dogs were orally pretreated with test compound or distilled water (0.5 ml/kg) and 1 hour later challenged by gavage with KleanPrep® solution. Dependent on the type of experiment, the KleanPrep® solution was administered more than once at 15 minutes intervals. The standard administration volume was 200 ml. The occurrence of liquid stools at 1, 2, 3, 4, 5 and 6 hours after the first administration of KleanPrep® was noted. The KleanPrep® solution consisted of polyethyleneglycol 3350 (59 g/l), sodium sulfate (5.685 g/l), sodium hydrogencarbonate (1.685 g/l), sodium chloride (1.465 g/l), potassium chloride (0.7425 g/l), aspartate (0.0494 g/l) and vanille (0.3291 g/l).
Each dose of the test compounds was given to 5 animals.

[3] = fourth experiment: 2×200 ml KleanPrep, relative to ED50 for within 4 hours

Row | SMILES | ED50 (Beagle dogs [1]) | Ki (5HT3 receptor) | also measured
1 | CO[C@@H]1CN(CCCNc2nccc(=O)[nH]2)CC[C@@H]1NC(=O)c1cc(Cl)c(N)c2c1OC(C)(C)C2 (relative stereo) [Compound A, (−)-cis-4-amino-5-chloro-2,3-dihydro-N-[1-[3-[(3,4-dihydro-4-oxo-2-pyrimidinyl)amino]propyl]-3-methoxy-4-piperidinyl]-2,2-dimethyl-7-benzofurancarboxamide] | 0.0027 mg/kg | – | Ki (5HT3 receptor; N×G 108CC15 cell membranes, [3H]GR 65630 2 nM, 60 min 37° C, logarithmic mean and 95% confidence limits, read-out: 5HT3 receptor Ki (95% c.l.)): 0.58 nM; ED50 (Beagle dogs [2]; read-out: ED50 liquid stools within 1 hour, fourth experiment: 2×200 ml KleanPrep): 0.085 mg/kg; ED50 (Beagle dogs [2]; fourth experiment: 2×200 ml KleanPrep, read-out: ED50 liquid stools within 4 hours): 0.0036 mg/kg; dose increment for liquid stools within 1 hour (Beagle dogs [2]; [3]): 24 times; dose increment for liquid stools within 2 hours (Beagle dogs [2]; [3]): 3 times; dose increment for liquid stools within 3 hours (Beagle dogs [2]; [3]): 1.1 times; dogs displaying liquid stools within 2 hours after KleanPrep administration (Beagle dogs [2]; second experiment: single 200 ml KleanPrep, 0.16 mg/kg p.o. one hour earlier): three out of five; dogs displaying first liquid stool within 2 hours after first administration of KleanPrep (Beagle dogs [2]; third experiment: 4×200 ml KleanPrep at 15 minute intervals, 0.16 mg/kg p.o. one hour earlier): all five; time of first liquid stool after first administration of KleanPrep (individual dogs) (Beagle dogs [2]; third experiment: 4×200 ml KleanPrep at 15 minute intervals, 0.16 mg/kg p.o. one hour earlier, 0.16 mg/kg): 38 min and 39 min and 42 min and 52 min and 77 min
2 | COc1cc(N)c(Cl)cc1C(=O)NC1CN2CCC1CC2 (racemic) [(±)-Zacopride] | 0.023 mg/kg | – | –
3 | CCn1c(=O)n(C(=O)OC2C[C@H]3CC[C@@H](C2)N3C)c2ccccc21 (stereo partly drawn) [DAU-6236] | 0.049 mg/kg | 6.6 nM | –
4 | Cc1nccn1CC1CCc2c(c3ccccc3n2C)C1=O (racemic) [(±)-Ondansetron] | 0.097 mg/kg | – | –
5 | Cn1cc(C(=O)[C@@H]2CCc3nc[nH]c3C2)c2ccccc21 [(−)-YM-060] | 0.0012 mg/kg | 0.14 nM | –
6 | CC(C)n1c(=O)n(C(=O)N[C@H]2C[C@H]3CC[C@@H](C2)N3C)c2ccccc21 [BIMU-8] | 0.016 mg/kg | 0.29 nM | –
7 | COc1cc(N)c(Cl)cc1C(=O)NC1CCN2CCCC1C2 (racemic) [(±)-Renzapride] | 0.074 mg/kg | 10 nM | –
8 | CN1C2CCCC1CC(NC(=O)c1nn(C)c3ccccc13)C2 (stereo not drawn) [(endo)-Granisetron] | 0.014 mg/kg | – | –
9 | CN1[C@@H]2CC[C@H]1C[C@@H](OC(=O)c1c[nH]c3ccccc13)C2 [(endo)-Tropisetron] | 0.074 mg/kg | – | –
10 | CN1[C@@H]2CC[C@H]1C[C@@H](OC(=O)c1cc(Cl)cc(Cl)c1)C2 [Bemesetron] | 0.77 mg/kg | 8 nM | –
